Assay results as given in BigSolDB 2.1.

O=C(O)c1ccccc1
Conditions	solubility (mole fraction)
in 2-(2-butoxyethoxy)ethanol, 296.15 K	0.285
in 2-(2-butoxyethoxy)ethanol, 305.15 K	0.304
in 2-(2-butoxyethoxy)ethanol, 309.65 K	0.314
in 2-(2-butoxyethoxy)ethanol, 311.15 K	0.329
in 2-(2-butoxyethoxy)ethanol, 317.15 K	0.356
in 2-(2-butoxyethoxy)ethanol, 321.15 K	0.377
in 2-(2-butoxyethoxy)ethanol, 326.15 K	0.409
in 2-(2-butoxyethoxy)ethanol, 329.65 K	0.431
in 2-(2-butoxyethoxy)ethanol, 334.15 K	0.458
in 2-(2-butoxyethoxy)ethanol, 336.15 K	0.472
in DMAc, 288.65 K	0.469
in DMAc, 293.35 K	0.472
in DMAc, 302.15 K	0.475
in DMAc, 308.65 K	0.483
in DMAc, 311.65 K	0.489
in DMAc, 315.15 K	0.496
in DMAc, 318.15 K	0.505
in DMAc, 320.65 K	0.515
in DMAc, 324.15 K	0.529
in DMAc, 329.15 K	0.548
in cyclohexanone, 286.15 K	0.174
in cyclohexanone, 288.95 K	0.181
in cyclohexanone, 294.15 K	0.197
in cyclohexanone, 299.15 K	0.221
in cyclohexanone, 303.65 K	0.242
in cyclohexanone, 307.95 K	0.265
in cyclohexanone, 316.15 K	0.29
in cyclohexanone, 319.15 K	0.315
in cyclohexanone, 322.15 K	0.337
in cyclohexanone, 326.15 K	0.362
in decalin, 296.15 K	0.0147
in decalin, 301.15 K	0.0163
in decalin, 306.25 K	0.0196
in decalin, 311.05 K	0.0249
in decalin, 318.05 K	0.0355
in decalin, 325.15 K	0.0495
in decalin, 329.25 K	0.0589
in decalin, 332.55 K	0.0687
in decalin, 337.05 K	0.0887
in decalin, 338.65 K	0.103
in diethylene glycol, 294.15 K	0.0746
in diethylene glycol, 298.15 K	0.0995
in diethylene glycol, 302.35 K	0.131
in diethylene glycol, 305.15 K	0.148
in diethylene glycol, 309.35 K	0.183
in diethylene glycol, 314.65 K	0.225
in diethylene glycol, 319.95 K	0.269
in diethylene glycol, 324.15 K	0.3
in diethylene glycol, 327.95 K	0.336
in diethylene glycol, 332.25 K	0.367
in ethylene glycol, 291.65 K	0.0449
in ethylene glycol, 298.15 K	0.0539
in ethylene glycol, 300.95 K	0.0604
in ethylene glycol, 303.15 K	0.0689
in ethylene glycol, 306.65 K	0.0823
in ethylene glycol, 310.15 K	0.097
in ethylene glycol, 314.15 K	0.112
in ethylene glycol, 320.15 K	0.14
in ethylene glycol, 324.15 K	0.155
in ethylene glycol, 330.65 K	0.185
in m-xylene, 296.15 K	0.0649
in m-xylene, 302.15 K	0.0823
in m-xylene, 306.15 K	0.0928
in m-xylene, 312.65 K	0.117
in m-xylene, 315.15 K	0.129
in m-xylene, 320.15 K	0.154
in m-xylene, 323.15 K	0.173
in m-xylene, 330.65 K	0.22
in m-xylene, 334.15 K	0.246
in m-xylene, 336.15 K	0.257
in n-octane, 313.15 K	0.024
in n-octane, 322.35 K	0.033
in n-octane, 325.15 K	0.0365
in n-octane, 329.15 K	0.0448
in n-octane, 334.15 K	0.0578
in n-octane, 338.35 K	0.0718
in n-octane, 342.65 K	0.0865
in n-octane, 345.15 K	0.0955
in n-octane, 348.15 K	0.11
in n-octane, 354.15 K	0.134
in o-xylene, 297.15 K	0.0655
in o-xylene, 300.15 K	0.0735
in o-xylene, 303.15 K	0.0853
in o-xylene, 308.65 K	0.101
in o-xylene, 311.15 K	0.115
in o-xylene, 316.15 K	0.139
in o-xylene, 321.15 K	0.162
in o-xylene, 325.15 K	0.189
in o-xylene, 332.15 K	0.218
in o-xylene, 334.15 K	0.239
in p-xylene, 295.15 K	0.0628
in p-xylene, 299.65 K	0.0743
in p-xylene, 302.15 K	0.0819
in p-xylene, 307.15 K	0.0953
in p-xylene, 311.45 K	0.115
in p-xylene, 320.65 K	0.148
in p-xylene, 323.15 K	0.169
in p-xylene, 326.95 K	0.191
in p-xylene, 331.15 K	0.218
in p-xylene, 335.15 K	0.244
in propionic acid, 291.15 K	0.146
in propionic acid, 294.65 K	0.149
in propionic acid, 300.15 K	0.171
in propionic acid, 304.45 K	0.19
in propionic acid, 308.15 K	0.213
in propionic acid, 314.15 K	0.235
in propionic acid, 317.15 K	0.251
in propionic acid, 322.15 K	0.271
in propionic acid, 325.15 K	0.293
in propionic acid, 330.15 K	0.332
in sulfolane, 305.15 K	0.122
in sulfolane, 312.15 K	0.132
in sulfolane, 314.15 K	0.138
in sulfolane, 318.65 K	0.156
in sulfolane, 325.15 K	0.192
in sulfolane, 329.15 K	0.216
in sulfolane, 333.65 K	0.245
in sulfolane, 338.15 K	0.282
in sulfolane, 343.15 K	0.315
in sulfolane, 345.15 K	0.33
